Measured values taken from patent US10004711B2, “Methods and compositions comprising 10-hydroxy-2-decenoic acid” (DSM IP ASSETS B.V., priority 2014, dated 2018).

How the values were obtained:
[1] = test system: RAW264.7 mouse macrophage cell line; assay: IL-1β levels after LPS stimulation; assay type: cell-based; settings: Dexamethasone, concentration not given; LPS 100 ng/mL; 24 h
Method: (§1) Cultures of the RAW264.7 mouse macrophage cell line were pre-treated with 10-Hydroxy-2-decenoic acid (QBA) for 1 hour prior to stimulation with lipopolysaccharide (LPS, 100 ng/mL). After 24 hours of incubation, interleukin […] (IL-1β) and tumor necrosis factor-α (TNFα) levels were determined by Luminex technology and cell numbers were measured using Alamar Blue. Results are given as a ratio of cytokine concentration/cell number.

[2] = test system: RAW264.7 mouse macrophage cell line; assay: TNFα levels after LPS stimulation; assay type: cell-based; settings: Dexamethasone, concentration not given; LPS 100 ng/mL; 24 h
Method: as §1

[3] = test system: 19-20 month-old male rats; assay: Elevated plus-maze, rats fed QBA alone or QBA+DHA; assay type: in vivo, rat; settings: QBA 0, DHA 0.07% weight of diet
Method: Rats were fed QBA and subjected to an elevated plus-maze. The elevated plus-maze was elevated ˜85 cm above the floor and consisted of two open and two closed arms of the same size (50×10 cm). The closed arms were surrounded by walls 40 cm high, and the arms were constructed of black acrylic slabs that radiated from a central platform (10×10 cm) to form a plus sign. Each rat was placed in the central platform facing one of the open arms, and its behavior was recorded during a 5-min testing period with video capture software. More time spent in the open arms is an indication of reduced anxiety-like state. Rats were tested at 18 months old (N=11-13 per group).
The dose-response characteristics of 10-Hydroxy-2-decenoic acid's (QBA's) in combination with DHA for potential brain health benefits during aging were assessed for mood in 19-20 month-old male rats (N=11-14 per group). Rats were fed QBA alone or QBA+DHA and subjected to an elevated plus-maze.

[4] = Body weight of aged male rats fed QBA and/or DHA (Example 8); assay type: in vivo, rat; settings: DHA 0.07% weight of diet
Method: Aged male rats were fed 10-Hydroxy-2-decenoic acid (QBA) for approximately […] from 12-months to 20-months of age and the weight of rats was recorded.

[5] = Weight after Barnes maze psychological stress (Example 9); assay type: in vivo, rat; settings: for % Change (Weight after Barnes maze): DHA 0.07% weight of diet
Method: Aged male rats were fed 10-Hydroxy-2-decenoic acid (QBA) for approximately […] from 12-months to 20-months of age and the weight of rats was recorded (N=11-14 per group). During the last month of QBA feeding animals were subjected to the psychological stress of the Barnes maze.

[6] = Body weight of aged male rats fed QBA and/or DHA (Example 8); assay type: in vivo, rat; settings: DHA 0.07% weight of diet; remark: listed apart in the source

## C[C@@H]1C[C@H]2[C@@H]3CCC4=CC(=O)C=C[C@]4(C)[C@@]3(F)[C@@H](O)C[C@]2(C)[C@@]1(O)C(=O)CO [Dexamethasone, reference compound]
[1]
  IL-1β (pg/mL)/Cell Numbers: 0.0013 (pg/mL)/Cell Numbers
[2]
  TNFα (pg/mL)/Cell Numbers: 0.153 (pg/mL)/Cell Numbers

## CC/C=C\C/C=C\C/C=C\C/C=C\C/C=C\C/C=C\CCC(=O)O [DHA, all-cis-docosa-4,7,10,13,16,19-hexaenoic acid]
[3]
  Time (s) in Open Arm: 32.4 s
[4]; study day 0
  Avg Wt: 552.9 g
[4]; study day 4
  Avg Wt: 568.8 g
[4]; study day 11
  Avg Wt: 579.8 g
[4]; study day 18
  Avg Wt: 592.4 g
[4]; study day 25
  Avg Wt: 594.4 g
[4]; study day 32
  Avg Wt: 600.5 g
[4]; study day 39
  Avg Wt: 605.1 g
[4]; study day 46
  Avg Wt: 607.2 g
[4]; study day 53
  Avg Wt: 610.6 g
[4]; study day 67
  Avg Wt: 616.2 g
[4]; study day 74
  Avg Wt: 617.6 g
[4]; study day 81
  Avg Wt: 619.7 g
[4]; study day 88
  Avg Wt: 623.2 g
[4]; study day 95
  Avg Wt: 624.8 g
[4]; study day 102
  Avg Wt: 629.4 g
[4]; study day 109
  Avg Wt: 632.9 g
[4]; study day 116
  Avg Wt: 636.3 g
[4]; study day 123
  Avg Wt: 631.2 g
[4]; study day 137
  Avg Wt: 633.1 g
[4]; study day 151
  Avg Wt: 634.6 g
[5]; behavior stress day 7
  % Change (Weight after Barnes maze): −0.76%
[5]; behavior stress day 14
  % Change (Weight after Barnes maze): −0.57%
[5]; behavior stress day 21
  % Change (Weight after Barnes maze): −0.88%
[5]; behavior stress day 28
  % Change (Weight after Barnes maze): −0.56%
[5]; behavior stress day 35
  % Change (Weight after Barnes maze): −0.23%
[5]; summary of Table 15
  weight loss associated with the psychological stress: did not produce the same results
[6]; study day 60
  Avg Wt: 614.6 g
[6]; study day 130
  Avg Wt: 635.2 g
[6]; study day 144
  Avg Wt: 632.5 g
